Entries after “also recorded” stand apart in the source; their conditions may differ. Read-outs that look alike come from different tables or passages of the source.
How the values were obtained:
[1] = Oral bioavailability in rodents; conditions: in vivo
Experimental: In one embodiment, the dose of 6BN is from 0.001 to 0.25 mg. In another embodiment, the dose of 6BN is from 0.25 to 0.50 mg. In a further embodiment, the dose of 6BN is from 0.50 to 0.75 mg. In a still further embodiment, the dose of 6BN is from 0.75 to 1.0 mg. In a still another embodiment, the dose of 6BN is from 1.0 to 1.25 mg. In another embodiment, the dose of 6BN is from 1.25 to 1.5 mg. In a further embodiment, the dose of 6BN is from 1.5 to 1.75 mg. In a still further embodiment, the dose of 6BN is from 1.75 to 2.0 mg. In a still further embodiment, the dose of 6BN is from 2.0 to 3.0 mg. These projected dose ranges can be modified once clinical results with LD-6BN are available (for example oral bioavailability, estimated here to be ˜30% as observed in rodents.

[2] = Oral bioavailability in humans; conditions: human, in vivo
Excerpt: (§1) Additional preferred formulations include transdermal patch application and intranasal application (with partial direct access to the brain, bypassing the blood-brain-barrier). When combined with opioid analgesics in a co-formulation, LD-6BN can be delivered in the same formulation type for any of the opioid analgesics currently used clinically, including sustained release oral preparations. No dosage adjustments are needed.

[3] = Blood and brain levels of 6BN after s.c. doses (FIG. 3); type: in vivo, guinea pigs
Experimental: Therefore, when serving as an addiction modulator, LD-6BN interacts effectively with both peripheral and central opioid receptors. Its effect on reversing opioid induced hyperalgesia might at least in part occur by acting on MOR in peripheral nociceptor neurons (15), but reversal of opioid dependence is likely driven by a central effect. The level of MOR bound 6BN after an s.c. dose of 0.02 mg/kg is estimated to occupy ˜10% of MOR sites, assuring a gradual reversal of MOR-μ* to MOR-μ and MOR-μ^x, insufficient to interfere with opioid analgesia, or cause withdrawal in dependent subjects.
(§2) High potency in facilitating gradual conversion of the dependent state (elevated MOR-μ*) back to the resting and/or reserve MOR states. Following LD-6B dosing, only a low fractional receptor occupancy is sufficient to reverse the dependent state in a gradual dynamic fashion, further accounting for high potency as an addiction modulator. • 5. When designed to act as an antagonist (doses above the LD-6BN range), potency is expected to increase over time when administered before an opioid agonist, presumably via high MOR-μ* occupancy and thereby more rapid reversal of MOR-μ* back to its resting or reserve states. […] Morphinan analogues of 6BN tend to bind to all opioid receptors with varying potency and efficacy (patents (47)). […] Potency of potential addiction modulators should therefore be tested for binding and efficacy at MOR, DOR (delta), and KOR, to detect differences between them and anticipate potential variation in clinical outcomes.

[4] = biological target: kappa opioid receptors (KOR) (Homo sapiens, UniProt P41145); assay: Inverse agonist activity at KOR pretreated in vitro with KOR agonists; type: biochemical
Excerpt: as §2

MOR [5] = assay: Antagonist potency when administered before morphine in mice; type: in vivo; conditions: for change of antagonist potency when given before morphine compared to the same time: ~2 h before morphine
MOR-μ* = assay: Prevention/reversal of opioid dependence in animal models (FIG. 1, methadone-treated animals); type: in vivo, guinea pig; conditions: low dose, no interference with opioid analgesia, no withdrawal
Excerpt: FIG. 1 provides data showing prevention of withdrawal behavior in methadone-treated animals.

Water solubility = type: physicochemical
Excerpt: as §1

MOR [6] = biological target: T1, MOR (Homo sapiens, UniProt P35372); conditions: 6β-naltrexol compared with naltrexone; cited from earlier work
[7] = system: morphine induced slowing of bowel movements; conditions: cited from earlier work
[8] = system: peripheral sensory neurons; conditions: after washing out the drugs, 6BN tested at 10 μM; cited from earlier work
peripheral MOR = conditions: methadone maintenance subjects, cited from earlier work
[9] = humans; cited from earlier work
MOR [10] = biological target: T1, MOR; assay: MOR affinity (in vitro binding)
MOR [11] = biological target: T1, MOR; assay: Neutral antagonism at MOR
Excerpt: (§3) The invention embodies usage of any of these compounds or derivatives or metabolites thereof.

MOR [12] = biological target: T1, MOR; conditions: in vivo
Excerpt: as §3

MOR [13] = conditions: opioid detoxification/weaning with descending doses of buprenorphine; cited from earlier work

T1 sequence (P35372 whole entry): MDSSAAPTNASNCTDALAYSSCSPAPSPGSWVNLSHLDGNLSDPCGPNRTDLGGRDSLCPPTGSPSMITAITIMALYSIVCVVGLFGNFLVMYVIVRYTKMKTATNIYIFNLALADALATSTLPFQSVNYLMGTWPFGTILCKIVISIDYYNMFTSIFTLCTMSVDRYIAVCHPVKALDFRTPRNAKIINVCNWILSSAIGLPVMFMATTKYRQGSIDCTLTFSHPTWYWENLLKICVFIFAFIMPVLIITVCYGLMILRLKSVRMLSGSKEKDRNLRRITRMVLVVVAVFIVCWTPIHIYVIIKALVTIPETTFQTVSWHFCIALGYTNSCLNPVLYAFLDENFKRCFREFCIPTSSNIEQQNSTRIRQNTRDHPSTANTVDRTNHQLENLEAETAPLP
Chain of kappa opioid receptors (KOR) (P41145 whole entry): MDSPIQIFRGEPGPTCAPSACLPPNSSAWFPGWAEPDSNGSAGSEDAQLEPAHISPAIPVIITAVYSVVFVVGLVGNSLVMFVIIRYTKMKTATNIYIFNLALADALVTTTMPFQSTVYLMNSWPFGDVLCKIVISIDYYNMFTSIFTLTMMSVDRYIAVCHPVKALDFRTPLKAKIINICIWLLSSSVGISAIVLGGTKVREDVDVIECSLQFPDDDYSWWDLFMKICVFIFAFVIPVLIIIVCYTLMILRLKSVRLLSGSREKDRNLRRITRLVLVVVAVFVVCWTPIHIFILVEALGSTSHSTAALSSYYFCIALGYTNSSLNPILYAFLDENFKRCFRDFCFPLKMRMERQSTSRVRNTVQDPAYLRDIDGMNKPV

Q: With `Oc1ccc2c3c1O[C@H]1[C@H](O)CC[C@@]4(O)[C@@H](C2)N(CC2CC2)CC[C@]314` [6BN, 6β-naltrexol] as the compound, how does the bioavailability [1] read?
A: ~30%

Q: What about the bioavailability [2] of the same compound?
A: ~30%

Q: What about the receptor occupancy at 0.02 mg/kg ([3]; Cavia porcellus, sc, after an s.c. dose of 0.02 mg/kg, estimated, read-out: occupancy of MOR sites by bound 6BN) of the same compound?
A: ~10%

Q: What about the half-life ([3]; guinea pig, blood, sc, 1 mg/kg s.c., guinea pigs, read-out: initial blood t1/2 (converted)) of the same compound?
A: ~1 h

Q: And the concentration at 24 h ([3]; guinea pig, brain, sc, 24 h after a 1 mg/kg s.c. dose, guinea pigs, read-out: brain level)?
A: 0.5 ng/g

Q: What about the blood-brain-barrier penetration ([3]; guinea pig, in vivo) of the same compound?
A: slowly

Q: And the “activity at KOR pretreated with KOR agonists” value [4]?
A: detectable inverse agonist activity

Q: What about the “pre-injection time of maximal delayed antagonist action” value (MOR [5]; high doses) of the same compound?
A: ~2 h

Q: What about the “change of antagonist potency when given before morphine compared to the same time” value (MOR [5]) of the same compound?
A: becomes more potent as an antagonist

Q: And the “reversal/prevention of the opioid dependent state” value (MOR-μ*; listed as 6β-Naltrexol)?
A: extreme potency

Q: What about the “reversal/prevention of the opioid dependent state” value (MOR-μ*; listed as 6β-naltrexol) of the same compound?
A: reverses the dependent state with high potency

Q: And the water solubility (Water solubility)?
A: highly water soluble

Q: And the “affinity for MOR” value (MOR [6])?
A: nearly equally robust affinities

Q: And the suppression of analgesia ([7]; 20 mg, highest dose tested, administered 30 min before morphine)?
A: did not suppress analgesia

Q: What about the “ID50 against morphine induced slowing of bowel movements” value ([7]; i.v., against 10 mg morphine, opioid naïve subjects) of the same compound?
A: ~3 mg

Q: What about the “effect on MOR-μ* state” value [8] of the same compound?
A: reverses MOR-μ* back to the inactive state

Q: And the central withdrawal symptoms (peripheral MOR; 0.5-1.0 mg i.v.)?
A: no central withdrawal symptoms

Q: What about the tolerated i.v. dose (peripheral MOR; i.v., peripheral effects and bowel movements experienced) of the same compound?
A: 0.5 to 1.0 mg

Q: What about the half-life in blood [9] of the same compound?
A: ~12 h

Q: With `CC(=O)N[C@@H]1CC[C@@]2(O)[C@H]3Cc4ccc(O)c5c4[C@@]2(CCN3CC2CC2)[C@@H]1O5` [6β-naltrexamide] as the compound, how does the “affinity to MOR in vitro” value (MOR [10]) read?
A: high affinity

Q: What about the “change of antagonist potency when given before morphine compared to the same time” value (MOR [5]) of the same compound?
A: gains potency; also recorded: increasing potency as a neutral antagonist

Q: What about the “potency as a neutral antagonist” value (MOR [11]) of the same compound?
A: low potency as a neutral antagonist

Q: What about the type of antagonism (MOR [11]) of the same compound?
A: neutral antagonism

Q: And the peripheral selectivity (MOR [12])?
A: peripheral selectivity

Q: What about the peripheral selectivity (MOR [12]; listed as 6β-Natrexamide) of the same compound?
A: strong peripherally selective activity

Q: Which “initial total oral dose above which withdrawal symptoms occur” value (MOR [13]) does the source give for `O=C1CC[C@@]2(O)[C@H]3Cc4ccc(O)c5c4[C@@]2(CCN3CC2CC2)[C@H]1O5` [naltrexone, reference compound] here?
A: ≤ 0.25 mg

Q: And the “effect on MOR-μ* state” value [8]?
A: lock MOR into the active MOR-μ* state while blocking MOR-μ* signaling

Reference: patent publication US20240325379A1, “LOW-DOSE NALTREXOL AND USES THEREOF” (AETHER THERAPEUTICS INC., priority 2021, published 2024)
